{
  "source": "patent US20260263543A1",
  "about": "“COMPOSITIONS AND METHODS TO INCREASE PRODUCTION OF GAMMA-AMINOBUTYRIC ACID” (Verb Biotics, priority 2023, published 2026)",
  "key": {"GABA production": {"system": "GABA production", "test": "Synthesis of GABA in vitro (conversion of glutamate to GABA in culture)", "type": "cell-based, Lactiplantibacillus plantarum", "settings": "cultures grown under anaerobic conditions at ~37° C. for 48 hours; data not shown", "method": "The Lactiplantibacillus plantarum Lp815 strain was assessed for its ability to convert glutamate to GABA in vitro. Overnight, stationary phase cultures (16-18 h) of L. plantarum Lp815 were used to inoculate 3 mL of fresh media at an optical density of ~0.05 as measured at 600 nm by a spectrophotometer (OD600). Multiple media types can be used, including rich media (e.g., MRS broth) or minimal media supplemented with the necessary components to support growth. The media can further be supplemented with L (+)-glutamic acid or a salt thereof and/or piperazine-N,N′-bis(2-ethanesulfonic acid) (PIPES). Cultures were grown under anerobic conditions at ~37° C. for 48 hours."}, "healthy adults": {"system": "healthy adults", "test": "Urine GABA and 5-HIAA levels in human participants after Lp815 supplementation", "type": "in vivo", "settings": "week 4, 1×10^9 cfu/day for 4 weeks", "method": "The Lactiplantibacillus plantarum Lp815 strain was assessed for its ability to increase GABA levels in human participants. Eight healthy adults (5 female, 3 male) provided a urine sample at baseline (T=0). Urine was analyzed for GABA and 5-HIAA levels using the Neurotransmitter Basic Panel (available from Life Extension/National Diagnostics, Inc.). 5-HIAA is a metabolite of serotonin and indicative of serotonin levels in a subject. Participants with GABA levels in the high range at baseline ([…] GABA) were excluded from the study. Participants proceeded to take the Lp815 probiotic at 1×10^9 cfu/day for 4 weeks. Participants refrained from beginning any new treatments, using antibiotics, or taking any additional probiotic products.\nAfter 4 weeks of supplementation, a second urine sample was collected and GABA levels measured. […] Additionally, levels of 5-HIAA were increased by approximately 10% at week 4 relative to baseline (FIG. 1B)."}, "[1]": {"system": "Participants with self-reported mild to moderate anxiety", "test": "Double blind, randomized, placebo-controlled study of GAD-7 generalized anxiety scores", "type": "in vivo, human", "settings": "1×10^9 CFU or 5×10^9 CFU daily; weeks 2, 4, and 6; FIG. 2", "method": "A double blind, randomized, placebo-controlled study was conducted to assess the impact of Lactiplantibacillus plantarum Lp815 on generalized anxiety scores. Participants with self-reported mild to moderate anxiety as measured by the GAD-7 questionnaire were enrolled in a six week trial. Participants with severe anxiety were excluded.\nThe GAD-7 questionnaire is a self-reported questionnaire that assesses anxiety levels based on 7 questions as measured over the last two weeks: 1) feeling nervous, anxious, or on edge, 2) not being able to stop or control worrying, 3) worrying too much about different things, 4) trouble relaxing, 5) being so restless that it is hard to sit still, 6) becoming easily annoyed or irritable, and 7) feeling afraid as if something awful might happen. For each question, a score of 0 (not at all), 1 (several days), 2 (more than half the days), or 3 (nearly every day) is assigned. The total score is a sum across the seven questions. A total score of 0-4 indicates minimal anxiety, 5-9 indicates mild anxiety, 10-14 indicates moderate anxiety, and 15-21 indicates severe anxiety.\nParticipants were divided into either placebo, 1×10^9 CFU daily of Lp815 or 5×10^9 CFU daily of Lp815. The GAD-7 questionnaire was administered at baseline, 2 weeks, 4 weeks and 6 weeks following supplementation."}},
  "data": [
    {"substance": "Lactiplantibacillus plantarum Lp815", "values": [
      {"measurement": "GABA production", "setting": "GABA production", "result": "increase in GABA production"},
      {"measurement": "GABA levels increase relative to baseline", "setting": "healthy adults; FIG. 1A", "result": "approximately 20%"},
      {"measurement": "levels of 5-HIAA increase relative to baseline", "setting": "healthy adults; FIG. 1B", "result": "approximately 10%"},
      {"measurement": "decrease in GAD-7 scores relative to baseline", "setting": "[1]", "result": "10-15 points"}
    ]}
  ]
}
